According to patent publication US12679848B2, “Plasma kallikrein inhibitors” (Merck Sharp & Dohme LLC, priority 2020, dated 2026):

Legend:
Human plasma kallikrein = target: T1, Human plasma kallikrein (Homo sapiens, UniProt P03952); assay: Plasma Kallikrein Assay; format: biochemical; conditions: purified Human plasma kallikrein 0.5 nM, substrate Acetyl-K-P-R-AFC, HEPES pH 7.4; read-out: PKal IC50
T1 construct: yields a heavy chain (371 amino acids) and a light chain (248 amino acids); The active site of plasma kallikrein is contained in the light chain; purchased Enzyme Research Laboratories
Method in brief: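 Purified human plasma kallikrein at 0.5 nM final with substrate Acetyl-K-P-R-AFC at […], in 50 mM HEPES pH 7.4, 150 mM NaCl, 5 mM CaCl2, 0.1% PEG 8000, at rt or 37° C after enzyme-inhibitor equilibration. IC50 from four-parameter logistic fit of fluorescence rate; Ki via Cheng-Prusoff.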

human factor XIa = human factor XIa (Homo sapiens, UniProt P03951); assay: Factor XIa Assay; format: biochemical; conditions: human factor XIa 0.04 nM, substrate GPR-AFC, 30 min pre-incubation, 25° C., pH 7.4; read-out: FXIa IC50
Chain of human factor XIa (P03951 388-625 limits assumed): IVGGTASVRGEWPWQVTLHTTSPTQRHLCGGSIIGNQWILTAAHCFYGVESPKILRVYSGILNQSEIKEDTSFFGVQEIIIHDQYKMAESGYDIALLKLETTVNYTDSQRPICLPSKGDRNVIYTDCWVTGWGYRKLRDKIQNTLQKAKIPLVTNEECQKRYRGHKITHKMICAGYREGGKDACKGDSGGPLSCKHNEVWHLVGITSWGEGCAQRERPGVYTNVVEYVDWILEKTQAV
Chain of human factor XIa (P03951 19-387 partner limits assumed): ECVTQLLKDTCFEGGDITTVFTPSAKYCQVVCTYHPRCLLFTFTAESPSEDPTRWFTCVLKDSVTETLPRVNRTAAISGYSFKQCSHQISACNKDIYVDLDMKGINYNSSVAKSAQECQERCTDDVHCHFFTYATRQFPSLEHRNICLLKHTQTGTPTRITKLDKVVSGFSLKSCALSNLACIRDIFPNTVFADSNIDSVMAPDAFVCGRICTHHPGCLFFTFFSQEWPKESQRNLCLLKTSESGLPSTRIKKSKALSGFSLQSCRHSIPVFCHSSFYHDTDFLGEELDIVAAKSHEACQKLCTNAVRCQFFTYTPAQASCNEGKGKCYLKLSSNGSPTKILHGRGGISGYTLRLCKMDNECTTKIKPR

T1 sequence (P03952 391-638 limits assumed): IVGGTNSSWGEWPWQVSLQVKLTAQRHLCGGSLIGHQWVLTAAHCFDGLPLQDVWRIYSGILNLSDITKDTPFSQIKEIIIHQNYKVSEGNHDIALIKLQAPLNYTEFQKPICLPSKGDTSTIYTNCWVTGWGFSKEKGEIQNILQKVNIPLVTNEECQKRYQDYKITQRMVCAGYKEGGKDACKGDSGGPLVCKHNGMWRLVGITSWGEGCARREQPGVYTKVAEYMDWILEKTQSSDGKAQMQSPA
T1 sequence (P03952 20-390 partner limits assumed): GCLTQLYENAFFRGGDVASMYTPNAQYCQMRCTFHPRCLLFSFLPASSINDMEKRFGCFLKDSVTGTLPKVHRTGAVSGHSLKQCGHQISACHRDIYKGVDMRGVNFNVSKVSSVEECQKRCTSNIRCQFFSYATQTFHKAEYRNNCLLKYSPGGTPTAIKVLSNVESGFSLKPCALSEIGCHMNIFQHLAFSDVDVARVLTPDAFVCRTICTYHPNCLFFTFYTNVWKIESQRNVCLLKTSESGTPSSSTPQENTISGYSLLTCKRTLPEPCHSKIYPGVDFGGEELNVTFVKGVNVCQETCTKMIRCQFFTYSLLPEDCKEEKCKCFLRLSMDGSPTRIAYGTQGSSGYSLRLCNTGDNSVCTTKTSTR

Structure (SMILES)	IC50 (Human plasma kallikrein) [nM]	IC50 (human factor XIa) [nM]
CC1(C)CN(C(=O)c2cnn(-c3ccccc3)c2N)C[C@]2(C1)OC(=O)Nc1ccc(Cl)c(F)c12 [Example 69, (R)-1'-(5-Amino-1-phenyl-1H-pyrazole-4-carbonyl)-6-chloro-5-fluoro-5',5'-dimethylspiro[benzo[d][1,3]oxazine-4,3'-piperidin]-2(1H)-one]	41.7	4590
CCOC(=O)c1ccc(C)c(-n2ncc(C(=O)N3CCC[C@@]4(C3)OC(=O)Nc3ccc(Cl)c(F)c34)c2N)c1 [Example 70, Ethyl (R)-3-(5-amino-4-(6-chloro-5-fluoro-2-oxo-1,2-dihydrospiro[benzo[d][1,3]oxazine-4,3'-piperidine]-1'-carbonyl)-1H-pyrazol-1-y1)-4-methylbenzoate]	13.4	1140
CC(=O)Nc1cccc(-n2ncc(C(=O)N3CCC[C@@]4(C3)OC(=O)Nc3ccc(Cl)c(F)c34)c2N)c1 [Example 71, (R)-N-(3-(5-Amino-4-(6-chloro-5-fluoro-2-oxo-1,2-dihydrospiro[benzo[d][1,3]oxazine-4,3'-piperidine]-1'-carbonyl)-1H-pyrazol-1-yl)phenyl)acetamide]	36.6	4050
Nc1c(C(=O)N2CCC[C@@]3(C2)OC(=O)Nc2ccc(Cl)c(F)c23)cnn1-c1ccncc1Cl [Example 73, (R)-1'-(5-Amino-1-(3-chloropyridin-4-y1)-1H-pyrazole-4-carbonyl)-6-chloro-5-fluorospiro[benzo[d][1,3]oxazine-4,3'-piperidin]-2(1H)-one]	22.5	316
Nc1c(C(=O)N2CCC[C@@]3(C2)OC(=O)Nc2ccc(Cl)c(F)c23)cnn1-c1ccc(C(=O)O)cc1 [Example 74, (R)-4-(5-Amino-4-(6-chloro-5-fluoro-2-oxo-1,2-dihydrospiro[benzo[d][1,3]oxazine-4,3'-piperidine]-l'-carbonyl)-1H-pyrazol-1-yl)benzoic acid]	8.4	378
Nc1c(C(=O)N2CCC[C@@]3(C2)OC(=O)Nc2ccc(Cl)c(F)c23)cnn1-c1ccc(N2CCOC2=O)cc1 [Example 75, (R)-1'-(5-Amino-1-(4-(2-oxooxazolidin-3-yl)phenyl)-1H-pyrazole-4-carbonyl)-6-chloro-5-fluorospiro[benzo[d][1,3]oxazine-4,3'-piperidin]-2(1H)-one]	50.7	4720
Nc1c(C(=O)N2CCC[C@@]3(C2)OC(=O)Nc2ccc(Cl)c(F)c23)cnn1-c1cc(F)ccc1F [Example 76, (R)-1'-(5-Amino-1-(2,5-difluorophenyl)-1H-pyrazole-4-carbonyl)-6-chloro-5-fluorospiro[benzo[d][1,3]oxazine-4,3'-piperidin]-2(1H)-one]	29.5	1060
Nc1c(C(=O)N2CCC[C@@]3(C2)OC(=O)Nc2ccc(Cl)c(F)c23)cnn1-c1ccccc1C(F)(F)F [Example 77, (R)-1'-(5-Amino-1-(2-(trifluoromethyl)phenyl)-1H-pyrazole-4-carbonyl)-6-chloro-5-fluorospiro[benzo[d][1,3]oxazine-4,3'-piperidin]-2(1H)-one]	17.3	399
Nc1c(C(=O)N2CCC[C@@]3(C2)OC(=O)Nc2ccc(Cl)c(F)c23)cnn1-c1cc(F)ccc1Cl [Example 78, (R)-1'-(5-Amino-1-(2-chloro-5-fluorophenyl)-1H-pyrazole-4-carbonyl)-6-chloro-5-fluorospiro[benzo[d][1,3]oxazine-4,3'-piperidin]-2(1H)-one]	35.9	813
COc1ccccc1-n1ncc(C(=O)N2CCC[C@@]3(C2)OC(=O)Nc2ccc(Cl)c(F)c23)c1N [Example 79, (R)-1'-(5-Amino-1-(2-methoxyphenyl)-1H-pyrazole-4-carbonyl)-6-chloro-5-fluorospiro[benzo[d][1,3]oxazine-4,3'-piperidin]-2(1H)-one]	5.8	377
CCc1ccccc1-n1ncc(C(=O)N2CCC[C@@]3(C2)OC(=O)Nc2ccc(Cl)c(F)c23)c1N [Example 80, (R)-1'-(5-Amino-1-(2-ethylphenyl)-1H-pyrazole-4-carbonyl)-6-chloro-5-fluorospiro[benzo[d][1,3]oxazine-4,3'-piperidin]-2(1H)-one]	11.6	325
CC(C)c1ccccc1-n1ncc(C(=O)N2CCC[C@@]3(C2)OC(=O)Nc2ccc(Cl)c(F)c23)c1N [Example 81, (R)-1'-(5-Amino-1-(2-isopropylphenyl)-1H-pyrazole-4-carbonyl)-6-chloro-5-fluorospiro[benzo[d][1,3]oxazine-4,3'-piperidin]-2(1H)-one]	5.5	353
Nc1c(C(=O)N2CCC[C@@]3(C2)OC(=O)Nc2ccc(Cl)c(F)c23)cnn1-c1ccccc1Cl [Example 82, (R)-1'-(5-Amino-1-(2-chlorophenyl)-1H-pyrazole-4-carbonyl)-6-chloro-5-fluorospiro[benzo[d][1,3]oxazine-4,3'-piperidin]-2(1H)-one]	28.4	739
Nc1c(C(=O)N2CCC[C@@]3(C2)OC(=O)Nc2ccc(Cl)c(F)c23)cnn1-c1ccccc1Br [Example 83, (R)-1'-(5-Amino-1-(2-bromophenyl)-1H-pyrazole-4-carbonyl)-6-chloro-5-fluorospiro[benzo[d][1,3]oxazine-4,3'-piperidin]-2(1H)-one]	35.5	862

More lines, now with the values ahead:

IC50 (Human plasma kallikrein) [nM]	IC50 (human factor XIa) [nM]	Structure (SMILES)
27.3	923	Nc1c(C(=O)N2CCC[C@@]3(C2)OC(=O)Nc2ccc(Cl)c(F)c23)cnn1-c1ccccc1F [Example 84, (R)-1'-(5-Amino-1-(2-fluorophenyl)-1H-pyrazole-4-carbonyl)-6-chloro-5-fluorospiro[benzo[d][1,3]oxazine-4,3'-piperidin]-2(1H)-one]
9.2	1950	Cc1cccc(-n2ncc(C(=O)N3CCC[C@@]4(C3)OC(=O)Nc3ccc(Cl)c(F)c34)c2N)c1C [Example 85, (R)-1'-(5-Amino-1-(2,3-dimethylphenyl)-1H-pyrazole-4-carbonyl)-6-chloro-5-fluorospiro[benzo[d][1,3]oxazine-4,3'-piperidin]-2(1H)-one]
46	645	Cc1ccc(-n2ncc(C(=O)N3CCC[C@@]4(C3)OC(=O)Nc3ccc(Cl)c(F)c34)c2N)c(C)c1 [Example 86, (R)-1'-(5-Amino-1-(2,4-dimethylphenyl)-1H-pyrazole-4-carbonyl)-6-chloro-5-fluorospiro[benzo[d][1,3]oxazine-4,3'-piperidin]-2(1H)-one]
26.4	1170	Cc1ccc(C)c(-n2ncc(C(=O)N3CCC[C@@]4(C3)OC(=O)Nc3ccc(Cl)c(F)c34)c2N)c1 [Example 87, (R)-1'-(5-Amino-1-(2,5-dimethylphenyl)-1H-pyrazole-4-carbonyl)-6-chloro-5-fluorospiro[benzo[d][1,3]oxazine-4,3'-piperidin]-2(1H)-one]
47	1690	Cc1ccc(F)cc1-n1ncc(C(=O)N2CCC[C@@]3(C2)OC(=O)Nc2ccc(Cl)c(F)c23)c1N [Example 88, (R)-1'-(5-Amino-1-(5-fluoro-2-methylpheny1)-1H-pyrazole-4-carbonyl)-6-chloro-5-fluorospiro[benzo[d][1,3]oxazine-4,3'-piperidin]-2(1H)-one]
1.6	162	Nc1c(C(=O)N2CCC[C@@]3(C2)OC(=O)Nc2ccc(Cl)c(F)c23)cnn1-c1ccccc1OC1CC1 [Example 89, (R)-1'-(5-Amino-1-(2-cyclopropoxyphenyl)-1H-pyrazole-4-carbonyl)-6-chloro-5-fluorospiro[benzo[d][1,3]oxazine-4,3'-piperidin]-2(1H)-one]
6.6	215	Nc1c(C(=O)N2CCC[C@@]3(C2)OC(=O)Nc2ccc(Cl)c(F)c23)cnn1-c1ccccc1OC(F)F [Example 90, (R)-1'-(5-Amino-1-(2-(difluoromethoxy)phenyl)-1H-pyrazole-4-carbonyl)-6-chloro-5-fluorospiro[benzo[d][1,3]oxazine-4,3'-piperidin]-2(1H)-one]
5.8	525	Nc1c(C(=O)N2CCC[C@@]3(C2)OC(=O)Nc2ccc(Cl)c(F)c23)cnn1-c1cccc2c1OC(F)(F)O2 [Example 91, (R)-1'-(5-Amino-1-(2,2-difluorobenzo[d][1,3]dioxol-4-y1)-1H-pyrazole-4-carbonyl)-6-chloro-5-fluorospiro[benzo[d][1,3]oxazine-4,3'-piperidin]-2(1H)-one]
13.2	1710	COC(=O)c1ccc(-n2ncc(C(=O)N3CCC[C@@]4(C3)OC(=O)Nc3ccc(Cl)c(F)c34)c2N)c(OC)c1 [Example 92, Methyl (R)-4-(5-amino-4-(6-chloro-5-fluoro-2-oxo-1,2-dihydrospiro[benzo[d][1,3]oxazine-4,3'-piperidine]-l'-carbonyl)-1H-pyrazol-1-yl)-3-methoxybenzoate]
10.4	418	Nc1c(C(=O)N2CCC[C@@]3(C2)OC(=O)Nc2ccc(Cl)c(F)c23)cnn1-c1c(F)cccc1F [Example 93, (R)-1'-(5-Amino-1-(2,6-difluorophenyl)-1H-pyrazole-4-carbonyl)-6-chloro-5-fluorospiro[benzo[d][1,3]oxazine-4,3'-piperidin]-2(1H)-one]
11.8	1290	COc1ccc(Cl)cc1-n1ncc(C(=O)N2CCC[C@@]3(C2)OC(=O)Nc2ccc(Cl)c(F)c23)c1N [Example 94, (R)-1'-(5-Amino-1-(5-chloro-2-methoxyphenyl)-1H-pyrazole-4-carbonyl)-6-chloro-5-fluorospiro[benzo[d][1,3]oxazine-4,3'-piperidin]-2(1H)-one]
